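Values below derive from 48-hour exposures of cells grown in 96-well plates, with endpoints linearly interpolated between the two concentrations bracketing the appropriate inhibition level. At the GI50, growth is halved. TGI denotes the concentration required for complete inhibition of growth.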

Test systems include LXFL 529 NSCLC; DMS 273 small cell lung; DMS 114 small cell lung; M19-MEL melanoma; DLD-1 colon; XF 498 CNS.
What all share (experiment): inhibition of tumour cell growth, NCI panel, 48 h

Regarding `[Cl-].[Rh+3].c1cnc2c(c1)ccc1cccnc12.c1cnc2c(c1)ccc1cccnc12.c1cnc2c(c1)ccc1cccnc12`, in the assay with LXFL 529 NSCLC, the GI50 was above 100 µM and the TGI was above 100 µM.
As to `O=C(N/N=C/C=C/c1ccccc1)[C@H](O)[C@@H](O)C(=O)N/N=C/C=C/c1ccccc1`, the TGI with DMS 273 small cell lung, in the assay with DMS 114 small cell lung, with M19-MEL melanoma, in the assay on LXFL 529 NSCLC and in the assay on DLD-1 colon was above 100 µM each time.
As to `c1nc(N2CC2)c2cnn(C3CCCCO3)c2n1` (stereo not drawn), the TGI in the assay on DMS 273 small cell lung, in the assay on DMS 114 small cell lung, with M19-MEL melanoma, with LXFL 529 NSCLC, in the assay with XF 498 CNS and in the assay on DLD-1 colon was above 100 µM in each case.
